# Literature values in patent publication US10281467B2, “Screening assays to identify compounds which modulate T1R associated taste modalities which eliminate false positives” (SENOMYX, INC., priority 2013, dated 2019).
# System: sweet taste
# Details: more potent/sweet than sucrose
smiles,measurement,value
C=C(C)[C@@H]1CC=C(/C=N/O)CC1 [Perillartine],potency/sweetness relative to sucrose,approximately 370 times
